# Experimental data as given in US20130243707A1, “TOPICAL COMPOSITIONS” (priority 2006, published 2013).
# Columns and labels:
# [1] = Super-solvent effect (Drug solubilized by combinations of solvent alcohols); type: physicochemical
# Experimental: Methods. First, the amount of each solvent alcohol required to solubilize one gram of NSAID was determined (saturation amount). Next, each combination of 2, 3 and 4 solvent alcohols were made using the saturation amounts determined by the first step. Finally, the amount of drug that could be solubilized by the solvent systems (i.e. the solvent alcohol combinations) was determined. The super-solvent effect was determined using this protocol, where percent=actual grams solubilized divided by the predicted grams (based upon the first step) expressed as percent increase (e.g. if twice the predicted amount could be solubilized, the super-solvent effect would be % 100.
# [2] = Maximal NSAID and water concentrations in PG/PEG solvent systems; type: physicochemical; design: B maximum: unit not given here
# Source text: With the teaching herein, useful Drug and water concentrations can be determined for a given solvent system. Such concentrations can be described by the equation W=mD+b, where W is a water concentration, D is the Drug concentration, b is the y intercept, and m is the slope.
# [3] = Solubility of Drugs in single solvent alcohols; type: physicochemical
# Experimental: Briefly, the indicated NSAID was weighed and added to a beaker. To each beaker, incremental amounts of the indicated solvent was weighed and added. The beakers were sealed with aluminum foil and placed at room temperature or in a 35 C water bath for 20-30 minutes. They beakers were shaken frequently to mix the contents. After 20-30 minutes the solvent alcohols were examined. If a single phasic solution was not yet achieved, an additional aliquot of the solvent was added and the cycle was repeated until complete solvation had occurred.
# [4] = Super-solvent water effect (maximum water before NSAID precipitates); type: physicochemical; details: for Super-solvent Effect: in %
# Experimental: Methods. […] These amounts are chosen based upon the solubility of one gram of NSAID and the amount of the single solvent alcohol for saturation. Next, water was added in step-wise manner to determine the maximum amount that can be added before any visible amount of the NSAID precipitated (i.e., the volume of water that can be added and yet remain single phasic).
# [5] = cited from earlier work
# [6] = cited from earlier work; remark: listed apart in the source
# [7] = Flurbiprofen 2 gm, EtOH 2 gm, IPA 3 gm
# [8] = Flurbiprofen 2 gm, PEG 2 gm, EtOH 2 gm
# [9] = Flurbiprofen 2 gm, PEG 2 gm, IPA 3 gm
# [10] = Flurbiprofen 2 gm, PG 6 gm, EtOH 2 gm
# [11] = Flurbiprofen 2 gm, PG 6 gm, IPA 3 gm
# [12] = Flurbiprofen 2 gm, PG 6 gm, PEG 2 gm
# [13] = Flurbiprofen 3 gm, PEG 2 gm, EtOH 2 gm, IPA 3 gm
# [14] = Flurbiprofen 3 gm, PG 6 gm, EtOH 2 gm, IPA 3 gm
# [15] = Flurbiprofen 3 gm, PG 6 gm, PEG 2 gm, EtOH 2 gm
# [16] = Flurbiprofen 3 gm, PG 6 gm, PEG 2 gm, IPA 3 gm
# [17] = Flurbiprofen 4 gm, PG 6 gm, PEG 2 gm, EtOH 2 gm, IPA 3 gm
smiles,measurement,setting,value
CC(=O)Nc1ccc(O)cc1 [Acetaminophen],Super-solvent Effect,"[1]; EtOH 5 gr, IPA 11 gr",21.6%
same,Super-solvent Effect,"[1]; PEG 400 9 gr, EtOH 5 gr",60.0%
same,Super-solvent Effect,"[1]; PEG 400 9 gr, EtOH 5 gr, IPA 11 gr",55.6%
same,Super-solvent Effect,"[1]; PEG 400 9 gr, IPA 11 gr",63.8%
same,Super-solvent Effect,"[1]; PG 9 gr, EtOH 5 gr",21.2%
same,Super-solvent Effect,"[1]; PG 9 gr, EtOH 5 gr, IPA 11 gr",14.6%
same,Super-solvent Effect,"[1]; PG 9 gr, IPA 11 gr",22.2%
same,Super-solvent Effect,"[1]; PG 9 gr, PEG 400 9 gr",22.0%
same,Super-solvent Effect,"[1]; PG 9 gr, PEG 400 9 gr, EtOH 5 gr",41.8%
same,Super-solvent Effect,"[1]; PG 9 gr, PEG 400 9 gr, EtOH 5 gr, IPA 11 gr",52.5%
same,Super-solvent Effect,"[1]; PG 9 gr, PEG 400 9 gr, IPA 11 gr",43.3%
same,B maximum,"[2]; PG/PEG 1/3, b of y = −5.7055x + b",100
same,B maximum,"[2]; PG/PEG 1/4, b of y = −6.4787x + b",118
same,B maximum,"[2]; PG/PEG 2/2, b of y = −11.52x + b",154
same,B maximum,"[2]; PG/PEG 3/4, b of y = −7.7243x + b",124
same,B maximum,"[2]; PG/PEG 4/3, b of y = −6.3927x + b",102
same,Maximum Drug Concentration in single alcohol: EtOH,[3]; Solubility at 35 C,16.67
same,Maximum Drug Concentration in single alcohol: IPA,[3]; Solubility at 35 C,8.33
same,Maximum Drug Concentration in single alcohol: PEG,[3]; Solubility at 35 C,10.00
same,Maximum Drug Concentration in single alcohol: PG,[3]; Solubility at 35 C,10.00
same,Maximum Drug Concentration in single alcohol: EtOH,[3]; Solubility at Room Temperature,9.52
same,Maximum Drug Concentration in single alcohol: IPA,[3]; Solubility at Room Temperature,4.35
same,Maximum Drug Concentration in single alcohol: PEG,[3]; Solubility at Room Temperature,5.41
same,Maximum Drug Concentration in single alcohol: PG,[3]; Solubility at Room Temperature,4.76
CCCCOc1ccc(CC(=O)NO)cc1 [Bufexamac],Maximum Drug Concentration in single alcohol: EtOH,[3]; Solubility at Room Temperature,1.23
same,Maximum Drug Concentration in single alcohol: IPA,[3]; Solubility at Room Temperature,0.62
O=C(O)Cc1ccccc1Nc1c(Cl)cccc1Cl [Diclofenac],Super-solvent Effect,"[1]; PEG 400 11 gr, EtOH 6 gr",81.0%
same,Super-solvent Effect,"[1]; PG 6 gr, EtOH 6 gr",90.9%
same,Super-solvent Effect,"[1]; PG 6 gr, PEG 400 11 gr",62.2%
same,Super-solvent Effect,"[1]; PG 6 gr, PEG 400 11 gr, EtOH 6 gr",54.8%
same,Maximum Drug Concentration in single alcohol: EtOH,[3]; Solubility at 35 C,14.29
same,Maximum Drug Concentration in single alcohol: PEG,[3]; Solubility at 35 C,8.33
same,Maximum Drug Concentration in single alcohol: PG,[3]; Solubility at 35 C,14.29
same,Maximum Drug Concentration in single alcohol: EtOH,[3]; Solubility at Room Temperature,11.11
same,Maximum Drug Concentration in single alcohol: PEG,[3]; Solubility at Room Temperature,7.69
same,Maximum Drug Concentration in single alcohol: PG,[3]; Solubility at Room Temperature,14.29
CC(C(=O)O)c1ccc(-c2ccccc2)c(F)c1 (stereo not shown) [Flurbiprofen],Flurbiprofen % W/W,"[4]; Flurbiprofen 1 gm, EtOH 2 gm",20.0 % W/W
same,Water Observed,"[4]; Flurbiprofen 1 gm, EtOH 2 gm",2 gm
same,Flurbiprofen % W/W,"[4]; Flurbiprofen 1 gm, IPA 3 gm",14.3 % W/W
same,Water Observed,"[4]; Flurbiprofen 1 gm, IPA 3 gm",3 gm
same,Flurbiprofen % W/W,"[4]; Flurbiprofen 1 gm, PEG 2 gm",25.0 % W/W
same,Water Observed,"[4]; Flurbiprofen 1 gm, PEG 2 gm",1 gm
same,Flurbiprofen % W/W,"[4]; Flurbiprofen 1 gm, PG 6 gm",12.5 % W/W
same,Water Observed,"[4]; Flurbiprofen 1 gm, PG 6 gm",1 gm
same,Flurbiprofen % W/W,[4]; [7],18.2 % W/W
same,Super-solvent Effect,[4]; [7],37.1
same,Flurbiprofen % W/W,[4]; [8],25.0 % W/W
same,Super-solvent Effect,[4]; [8],0.0
same,Flurbiprofen % W/W,[4]; [9],15.4 % W/W
same,Super-solvent Effect,[4]; [9],135.7
same,Flurbiprofen % W/W,[4]; [10],12.5 % W/W
same,Super-solvent Effect,[4]; [10],160.0
same,Flurbiprofen % W/W,[4]; [11],11.8 % W/W
same,Super-solvent Effect,[4]; [11],104.5
same,Flurbiprofen % W/W,[4]; [12],14.3 % W/W
same,Super-solvent Effect,[4]; [12],140.0
same,Flurbiprofen % W/W,[4]; [13],18.8 % W/W
same,Super-solvent Effect,[4]; [13],60.0
same,Flurbiprofen % W/W,[4]; [14],13.6 % W/W
same,Super-solvent Effect,[4]; [14],90.5
same,Flurbiprofen % W/W,[4]; [15],17.6 % W/W
same,Super-solvent Effect,[4]; [15],30.8
same,Flurbiprofen % W/W,[4]; [16],13.6 % W/W
same,Super-solvent Effect,[4]; [16],117.1
same,Flurbiprofen % W/W,[4]; [17],15.4 % W/W
same,Super-solvent Effect,[4]; [17],81.5
same,Maximum Drug Concentration in single alcohol: EtOH,[3]; Solubility at 35 C,33.33
same,Maximum Drug Concentration in single alcohol: IPA,[3]; Solubility at 35 C,25.00
same,Maximum Drug Concentration in single alcohol: PEG,[3]; Solubility at 35 C,33.33
same,Maximum Drug Concentration in single alcohol: PG,[3]; Solubility at 35 C,14.29
same,Maximum Drug Concentration in single alcohol: EtOH,[3]; Solubility at Room Temperature,16.67
same,Maximum Drug Concentration in single alcohol: IPA,[3]; Solubility at Room Temperature,14.29
same,Maximum Drug Concentration in single alcohol: PEG,[3]; Solubility at Room Temperature,12.50
same,Maximum Drug Concentration in single alcohol: PG,[3]; Solubility at Room Temperature,6.25
same,pKa,[5],4.14
same,Log P,[6],4.16
COc1ccc2c(c1)c(CC(=O)O)c(C)n2C(=O)c1ccc(Cl)cc1 [Indomethacin],Maximum Drug Concentration in single alcohol: EtOH,[3]; Solubility at Room Temperature,0.25
same,Maximum Drug Concentration in single alcohol: IPA,[3]; Solubility at Room Temperature,0.10
same,Maximum Drug Concentration in single alcohol: PEG,[3]; Solubility at Room Temperature,0.05
same,Maximum Drug Concentration in single alcohol: PG,[3]; Solubility at Room Temperature,0.05
same,Log P,[6],3.08
COc1ccc2cc([C@H](C)C(=O)O)ccc2c1 [Naproxen],Water Added Until Precipitation Occurs,"[2]; Naproxen 0.1215 gm, PG 2 gm, PEG 400 2 gm",3.5 gm
same,Water Added Until Precipitation Occurs,"[2]; Naproxen 0.1755 gm, PG 1 gm, PEG 400 3 gm",3.5 gm
same,Water Added Until Precipitation Occurs,"[2]; Naproxen 0.1755 gm, PG 4 gm, PEG 400 3 gm",5 gm
same,Water Added Until Precipitation Occurs,"[2]; Naproxen 0.2295 gm, PG 3 gm, PEG 400 4 gm",6.5 gm
same,Water Added Until Precipitation Occurs,"[2]; Naproxen 0.27 gm, PG 1 gm, PEG 400 4 gm",4.5 gm
same,Water Added Until Precipitation Occurs,"[2]; Naproxen 0.324 gm, PG 2 gm, PEG 400 2 gm",1 gm
same,Water Added Until Precipitation Occurs,"[2]; Naproxen 0.405 gm, PG 2 gm, PEG 400 2 gm",0.5 gm
same,Water Added Until Precipitation Occurs,"[2]; Naproxen 0.468 gm, PG 1 gm, PEG 400 3 gm",1 gm
same,Water Added Until Precipitation Occurs,"[2]; Naproxen 0.468 gm, PG 4 gm, PEG 400 3 gm",2.5 gm
same,Water Added Until Precipitation Occurs,"[2]; Naproxen 0.54 gm, PG 1 gm, PEG 400 4 gm",2.5 gm
same,Water Added Until Precipitation Occurs,"[2]; Naproxen 0.585 gm, PG 1 gm, PEG 400 3 gm",0.5 gm
same,Water Added Until Precipitation Occurs,"[2]; Naproxen 0.585 gm, PG 4 gm, PEG 400 3 gm",1.5 gm
same,Water Added Until Precipitation Occurs,"[2]; Naproxen 0.612 gm, PG 3 gm, PEG 400 4 gm",2.5 gm
same,Water Added Until Precipitation Occurs,"[2]; Naproxen 0.675 gm, PG 1 gm, PEG 400 4 gm",1 gm
same,Water Added Until Precipitation Occurs,"[2]; Naproxen 0.765 gm, PG 3 gm, PEG 400 4 gm",1.5 gm
same,Drug concentration range obtained at saturation,"[2]; PG and PEG 50% to 82%, PG to PEG ratio 0.33 to 1.3",up to 13%
same,B maximum (intercept of water versus Naproxen line),[2]; PG/PEG 1/3,52.794
same,B maximum (intercept of water versus Naproxen line),[2]; PG/PEG 1/4,47.637
same,B maximum (intercept of water versus Naproxen line),[2]; PG/PEG 2/2,54.158
same,B maximum (intercept of water versus Naproxen line),[2]; PG/PEG 3/4,52.964
same,B maximum (intercept of water versus Naproxen line),[2]; PG/PEG 4/3,56.913
O=C(O)c1cccnc1Nc1cccc(C(F)(F)F)c1 [Niflumic],Maximum Drug Concentration in single alcohol: EtOH,[3]; Solubility at Room Temperature,3.23
C=CCOc1ccc(CC(=O)O)cc1Cl [alclofenac],pKa,[5],4.26
same,Log P,[6],2.47
O=C(O)Cc1ccc(-c2ccccc2)cc1 [felbinac],pKa,[5],4.29
O=C(O)c1ccccc1Nc1cccc(C(F)(F)F)c1 [flufenamic acid],Log P,[6],5.62
Cc1cccc(Nc2ccccc2C(=O)O)c1C [mefenamic acid],pKa,[5],3.69
same,Log P,[6],5.12
CN1C(C(=O)Nc2ccccn2)=C(O)c2ccccc2S1(=O)=O [piroxicam],pKa,[5],3.6
same,Log P,[6],1.8
CC(C(=O)O)c1ccc(C(=O)c2ccccc2)s1 (stereo not shown) [tiaprofenic acid],pKa,[5],4.05
